Key:
[1] = test system: HaloTag in the nucleus of Hela cells; test: Live-cell imaging, localisation in Hela cells expressing HaloTag in the nucleus; format: cell-based
Procedure: (§1) Mammalian expression vectors with a SNAP-tag-NLS or SNAP-tag-Halo-tag-NLS fusion construct were available in the Johnsson lab. H2B-Halo was constructed from a pEBTet plasmid and the commercially available pCLIPf-H2B plasmid (NEB).
(§2) HeLa or U2OS cells were cultured in high-glucose DMEM media with GlutaMAX-1 (Life Technologies) supplemented with 10% FBS (Life Technologies) in a humidified 5% CO2 incubator at 37° C. Cells were split every 3-4 days or at confluency.
(§3) Cells were seeded on glass bottom 35 mm dishes (Mattek) one day before imaging. Transient transfection of cells was performed using Lipofectamine™ 2000 reagent (Life Technologies) according to the manufacturer's recommendations: DNA (2.5 μg) was mixed with OptiMEM I (100 μL, Life Technologies) and Lipofectamine™ 2000 (6 μL) was mixed with OptiMEM I (100 μL). The solutions were incubated for 5 min at room temperature. They were mixed and incubated for 20 min at room temperature. Prepared DNA-Lipofectamine complex was added to a glass bottom 35 mm dish with cells at 50-70% confluency. After 6 h incubation in a humidified 5% CO2 incubator at 37° C. the medium was changed to a fresh high-glucose DMEM medium with GlutaMAX-1 supplemented with 10% FBS. The cells were incubated for 1-2 days before imaging. […]

HaloTag-H2B fusion = test: Live-cell imaging, U2OS cells expressing HaloTag-H2B fusion; format: cell-based; settings: 1 μM, 1 h (FIG. 3)
Procedure: FIG. 3 U2OS cells expressing HaloTag-H2B fusion stained with PA-SiR-Halo for 1 h (1 μM) and washed once for 3 min. Images were taken before and after irradiation with the 355 nm laser on a confocal microscope. Scale bar 30 μm.
as §1, §2
Cells were seeded on glass bottom 35 mm dishes (Mattek) one day before imaging. Transient transfection of cells was performed using Lipofectamine™ 2000 reagent (Life Technologies) according to the manufacturer's recommendations: DNA (2.5 μg) was mixed with OptiMEM I (100 μL, Life Technologies) and Lipofectamine™ 2000 (6 μL) was mixed with OptiMEM I (100 μL). The solutions were incubated for 5 min at room temperature. They were mixed and incubated for 20 min at room temperature. Prepared DNA-Lipofectamine complex was added to a glass bottom 35 mm dish with cells at 50-70% confluency. […]

Actin = test: Live-cell imaging, localisation of PA-SiR-Actin to its target; format: cell-based
Procedure: as §2
(§4) Cells were stained with 1-3 μM PA-SiR (1-2 h, 37° C.), washed with phenol-red free DMEM medium (Life Technologies) or PBS (once for 3 min, 37° C.) and imaged in the same medium.
(§5) Imaging was performed using a Leica DMI6000B microscope equipped with a Hamamatsu-C9100 EM-CCD camera and a HCX PL APO 100.0×1.47 Oil objective and a standard Cy5 filter set was used. Activation of the fluorophores was achieved by irradiation with the DAPI-channel at 100% for 10-20 s. The same settings (exposure time=150 ms, gain=3, EM-gain=800, transmission=12.5%) were used for the images taken before and after UV irradiation in the SiR-channel.
(§6) Confocal imaging was performed on a Leica DMi8 microscope equipped with a Leica TCS SP8 X scanhead, a white light laser, a 355 nm laser (Coherent) and HC PL APO 63×1.47 Oil objective. The 355 nm laser was used to perform the photoactivation.

Tubulin = test: Live-cell imaging, localisation of PA-SiR-Tubulin to its target; format: cell-based
Procedure: as §2, §4, §5, §6

DNA = test: Live-cell imaging, localisation of PA-SiR-DNA to its target; format: cell-based
Procedure: as §2, §4, §5, §6

[2] = test system: SNAP-tag in the nucleus of Hela cells; test: Live-cell imaging, localisation in Hela cells expressing SNAP-tag in the nucleus; format: cell-based
Procedure: as §1, §2, §3

[3] = UV-Vis analysis / full absorbance spectra of PA-SiR 2a before and after UV irradiation; format: physicochemical; settings: PBS
Procedure: PBS solutions of different pH were adjusted by addition of HCl or NaOH solution using a pH meter.
Solutions were prepared in PBS ([…] or 20 μM) at the indicated pH. UV irradiation was performed outside of the spectrometer for the indicated period (T). Absorbance spectra were recorded using a SHIMADZU UV spectrophotometer (UV-1800) and 1 cm fluorescence quartz cuvettes (Hellma Analytics). Spectra were recorded every minute.
Solutions of 2a in PBS (10 μM) at the desired pH were prepared in 1 cm fluorescence quartz cuvette (Hellma Analytics). UV irradiation was performed directly inside the spectrophotometer during the running experiment at a fixed distance (F, single flash). Kinetic absorbance measurements were recorded on a Perkin-Elmer Lambda 950 spectrophotometer at 646 nm.

## CN(C)c1ccc2c(c1)[Si](C)(C)c1cc(N(C)C)ccc1C2=CCCC(=O)NCCOCCOCCCCCCCl [PA-SiR-Halo, 4-(3,7-Bis(dimethylamino)-5,5-dimethyldibenzo[b,e]silin-10(5H)-ylidene)-N-(2-(2-((6-chlorohexyl)oxy)ethoxy)ethyl)butanamide]
[1]
  localisation to HaloTag in the nucleus: successfully localised
HaloTag-H2B fusion
  localisation to H2B: successfully localised

## C/C1=C\CC[C@H](C)OC(=O)C[C@H](c2ccc(O)cc2)NC(=O)[C@@H](Cc2cc3ccccc3[nH]2)N(C)C(=O)[C@H](CCCCNC(=O)CCC=C2c3ccc(N(C)C)cc3[Si](C)(C)c3cc(N(C)C)ccc32)NC(=O)[C@@H](C)C1 [PA-SiR-Actin, N-(4-((4R,7R,10S,13S,19S,E)-7-((1H-Indol-2-yl)methyl)-4-(4-hydroxyphenyl)-8,13,15,19-tetramethyl-2,6,9,12-tetraoxo-1-oxa-5,8,11-triazacyclononadec-15-en-10-yl)butyl)-4-(3,7-bis(dimethylamino)-5,5-dimethyldibenzo[b,e]silin-10(5H)-ylidene)butanamide]
Actin
  localisation to target (actin): localised to their targets

## CC(=O)O[C@@]12CO[C@@H]1C[C@H](O)[C@@]1(C)C(=O)[C@H](O)C3=C(C)[C@@H](OC(=O)C(O)C(NC(=O)CCCCCCCNC(=O)CCC=C4c5ccc(N(C)C)cc5[Si](C)(C)c5cc(N(C)C)ccc54)c4ccccc4)C[C@@](O)([C@@H](OC(=O)c4ccccc4)[C@H]21)C3(C)C (stereo partly drawn) [PA-SiR-Tubulin, (2αR,4S,4αS,6R,9S,11S,12S,12αR,12βS)-12β-Acetoxy-9-((3-(8-(4-(3,7-bis(dimethylamino)-5,5-dimethyldibenzo[b,e]silin-10(5H)-ylidene)butanamido)octanamido)-2-hydroxy-3-phenylpropanoyl)oxy)-4,6,11-trihydroxy-4α,8,13,13-tetramethyl-5-oxo-2α,3,4,4α,5,6,9,10,11,12,12α,12β-dodecahydro-1H-7,11-methanocyclodeca[3,4]benzo[1,2-β]oxet-12-yl benzoate]
Tubulin
  localisation to target (tubulin): localised to their targets

## CN1CCN(c2ccc3nc(-c4ccc5nc(-c6ccc(OCCCCNC(=O)CCC=C7c8ccc(N(C)C)cc8[Si](C)(C)c8cc(N(C)C)ccc87)cc6)[nH]c5c4)[nH]c3c2)CC1 [PA-SiR-DNA, 4-(3,7-Bis(dimethylamino)-5,5-dimethyldibenzo[b,e]silin-10(5H)-ylidene)-N-(4-(4-(6-(4-methylpiperazin-1-yl)-1H,3′H-[2,5′-bibenzo[d]imidazol]-2′-yl)henoxy)butyl)butanamide]
DNA
  localisation to target (DNA): localised to their targets

## CN(C)c1ccc2c(c1)[Si](C)(C)c1cc(N(C)C)ccc1C2=CCCC(=O)NCc1ccc(COc2nc(N)nc3[nH]cnc23)cc1 [PA-SiR-SNAP, N-(4-(((2-Amino-9H-purin-6-yl)oxy)methyl)benzyl)-4-(3,7-bis(dimethylamino)-5,5-dimethyldibenzo[b,e]silin-10(5H)-ylidene)butanamide]
[2]
  localisation to SNAP-tag in the nucleus: successfully localised

## CN(C)c1ccc2c(c1)[Si](C)(C)c1cc(N(C)C)ccc1C2=CCCC(=O)O [2a, 4-(3,7-Bis(dimethylamino)-5,5-dimethyldibenzo[b,e]silin-10(5H)-ylidene)butanoicacid]
[3]
  absorbance (before photoactivation): only absorbance in the UV-range

From US12018157B2, “Tunable photoactivatable silicon rhodamine fluorophores” (SPIROCHROME AG, priority 2017, dated 2024)
